Test systems include TK-10 renal; UACC-257 melanoma; HL-60(TB) leukemia; MDA-MB-231 breast; NCI-H23 lung; HOP-92 NSCLC; ACHN renal; NCI-H226 lung; A549 NSCLC; SK-MEL-5 melanoma.
Common to all, as to assay: NCI-60 cell line screen, 48 h

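Compound exposure: 48 hours, 5 concentrations, 96-well plates. GI50 is the concentration that inhibits growth by half. TGI is the concentration that stops growth completely.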

Consider `COc1cc(/C=C/C(=O)c2c(C)nc3ccccc3c2C)ccc1OCCCCOc1cc2c(cc1OC)C(=O)N1CCC[C@H]1C=N2`, for which the GI50 in the test on TK-10 renal is 0.403 µM; in the test on UACC-257 melanoma it was 0.261 µM; in the test on HL-60(TB) leukemia, 0.196 µM; with MDA-MB-231 breast, 0.606 µM; in the test on NCI-H23 lung it was 0.396 µM; in the test on HOP-92 NSCLC, 0.19 µM. The GI50 is 1.46 µM with ACHN renal, 1.3 µM with NCI-H226 lung, 0.46 µM with A549 NSCLC and 0.517 µM with SK-MEL-5 melanoma. Moreover, the TGI was 3.2 µM in the test on TK-10 renal; 0.822 µM with UACC-257 melanoma; 0.514 µM in the test with HL-60(TB) leukemia; 3.51 µM in the test on MDA-MB-231 breast; 1.42 µM with NCI-H23 lung; 0.632 µM in the test with HOP-92 NSCLC. The TGI with ACHN renal is 3.22 µM; with NCI-H226 lung it was 3.26 µM; with A549 NSCLC it was 4.17 µM; in the test on SK-MEL-5 melanoma, 1.47 µM.

On to `FC(F)(F)c1cc(-c2ncn(/C=C\c3nnco3)n2)cc(C(F)(F)F)c1`, for which the GI50 was 0.0803 µM in the test with TK-10 renal; 0.0673 µM in the test with UACC-257 melanoma; 0.0485 µM in the test on HL-60(TB) leukemia; 0.132 µM in the test on MDA-MB-231 breast; 0.146 µM in the test with NCI-H23 lung; 0.0391 µM in the test with HOP-92 NSCLC. For the same compound, the GI50 with ACHN renal is 0.163 µM; with NCI-H226 lung, 0.0383 µM; in the test with A549 NSCLC, 0.0586 µM; with SK-MEL-5 melanoma it was 0.165 µM. For the same compound, the TGI in the test on TK-10 renal is 12.5 µM; in the test with UACC-257 melanoma, more than 66.4 µM; in the test on HL-60(TB) leukemia, 13.4 µM; with MDA-MB-231 breast, more than 73.9 µM; in the test on NCI-H23 lung, more than 41.4 µM; with HOP-92 NSCLC it was 4.87 µM. The TGI in the test with ACHN renal was more than 96.2 µM; with NCI-H226 lung, 23.6 µM; in the test with A549 NSCLC, more than 42.3 µM; in the test on SK-MEL-5 melanoma, 2.74 µM.

For the compound `CCCCCCCC(CC(=O)NC(CO)C(=O)NC(CO)CC(C)C)OC(=O)CC(CCCCCCC)OC(=O)CC(CCCCCCC)OC1OC(C)C(O)C(OC2OC(C)C(O)C(O)C2O)C1O` (stereo not given), the TGI was 30.8 µM in the test with TK-10 renal; 26.6 µM with UACC-257 melanoma; 10.5 µM with HL-60(TB) leukemia; 26.6 µM in the test on MDA-MB-231 breast; 30 µM in the test with NCI-H23 lung; 24.8 µM in the test on HOP-92 NSCLC. In addition, the TGI is 25.5 µM in the test with ACHN renal, 38.7 µM in the test on NCI-H226 lung, 31.7 µM with A549 NSCLC and 21.3 µM in the test with SK-MEL-5 melanoma.

Consider `CCCCN(CC)CCCCCCCCCCN1CCCc2cc(OC)ccc21`, for which the GI50 is 1.89 µM in the test with TK-10 renal; 3.34 µM with UACC-257 melanoma; 2.07 µM in the test on HL-60(TB) leukemia; 2.26 µM in the test with MDA-MB-231 breast; 2.16 µM with NCI-H23 lung; 2.19 µM in the test on HOP-92 NSCLC. Moreover, the GI50 in the test on ACHN renal is 3.91 µM; with NCI-H226 lung it was 2.8 µM; in the test on A549 NSCLC, 5.21 µM; in the test on SK-MEL-5 melanoma, 1.73 µM. For the same compound, the TGI in the test with TK-10 renal was 3.91 µM; with UACC-257 melanoma it was 9.2 µM; with HL-60(TB) leukemia it was 5 µM; with MDA-MB-231 breast, 7.04 µM; in the test with NCI-H23 lung, 6.09 µM; with HOP-92 NSCLC, 6.76 µM. The TGI was 14.9 µM in the test with ACHN renal, 8.16 µM in the test with NCI-H226 lung, 20.9 µM with A549 NSCLC and 3.12 µM with SK-MEL-5 melanoma.

With `CN(CSc1ccc(Cl)cc1)c1ccc(CSc2ccc(Cl)cc2)cc1`, the GI50 is 11.5 µM with TK-10 renal; 10.3 µM with UACC-257 melanoma; 1.57 µM in the test with HL-60(TB) leukemia; 1.8 µM with MDA-MB-231 breast; 4.24 µM in the test with NCI-H23 lung; 3.56 µM with HOP-92 NSCLC. Also, the GI50 is 6.28 µM with ACHN renal, 2.16 µM in the test on NCI-H226 lung, 5.22 µM in the test on A549 NSCLC and 6.85 µM in the test on SK-MEL-5 melanoma. The TGI is 31.7 µM in the test with TK-10 renal; 34.8 µM with UACC-257 melanoma; 32 µM in the test with HL-60(TB) leukemia; 5.9 µM in the test on MDA-MB-231 breast; 19.5 µM with NCI-H23 lung; 16.9 µM in the test with HOP-92 NSCLC. In addition, the TGI turned out to be 22.3 µM with ACHN renal, 6.67 µM in the test with NCI-H226 lung, 34.4 µM in the test on A549 NSCLC and 19.8 µM with SK-MEL-5 melanoma.

As to `CCC(C)CC(C)C(=O)c1c(O)ccn(O)c1=O` (stereo not given), the GI50 was 17.8 µM in the test with TK-10 renal; 2.52 µM in the test with UACC-257 melanoma; 0.473 µM in the test on HL-60(TB) leukemia; 1.04 µM in the test with MDA-MB-231 breast; 1.98 µM with NCI-H23 lung; 0.686 µM in the test on HOP-92 NSCLC. Also, the GI50 in the test with ACHN renal was 0.775 µM; in the test on NCI-H226 lung, 15.8 µM; in the test with A549 NSCLC, 1.78 µM; in the test on SK-MEL-5 melanoma it was 1.53 µM. Besides, the TGI in the test on TK-10 renal was more than 100 µM; with UACC-257 melanoma, 8.38 µM; in the test with HL-60(TB) leukemia it was 12.6 µM; in the test with MDA-MB-231 breast it was more than 100 µM; in the test with NCI-H23 lung it was more than 100 µM; in the test with HOP-92 NSCLC, 33.7 µM. Further, the TGI in the test with ACHN renal was more than 100 µM; in the test on NCI-H226 lung, 75.3 µM; in the test on A549 NSCLC, 36.3 µM; with SK-MEL-5 melanoma, 6.1 µM.

Source of the values: PubChem BioAssay (NCI).
